We go through 3 compounds from patent US11426375B2, “Substituted bisphenyl butanoic ester derivatives as NEP inhibitors” (NOVARTIS AG, priority 2019, dated 2022).

Read-outs that look alike come from different tables or passages of the source. Bounds are passed on as bounds.

Details of data set [1]: species or system Sprague Dawley rats. Particulars: rat, in vivo, po, 10 mg/kg; for LBQ657 concentration-time profile / conversion to LBQ657: male, Sprague-Dawley. The protocol:
A parallel study design consisting of four groups with three animals per group was conducted to examine the pharmacokinetic properties of the compounds of the present disclosure.
The drugs were administered to each group are as follows: compound I-1 (Group 1), compound I-2 (Group 2), compound I-3 (Group 3), and AHU377 (sacubitril) (Group 4). Each animal received a single 10 mg/kg (5 ml/kg) oral gavage dose of the specified study drug. The animal weights ranged from […] at the beginning of the study. Compound I-1, compound I-2, compound I-3, and AHU377 were formulated in 0.5% methylcellulose (400 cp) and 0.1% Tween 80 (w,v) in water was used as the vehicle. Water bath sonication was applied to facilitate dispersing for all four study drugs. Blood samples for pharmacokinetics analysis were collected at t=0.25, 0.5, 1, 2, 4, 8, and 24 hours (±5%) post dose administration. Plasma was prepared by collecting whole blood samples into tubes containing EDTA and NaF (final concentrations: ˜1 mg/mL (K2EDTA) and ˜2 mg/mL (NaF)). These tubes were kept in an ice bath prior to centrifugation at approximately 2,000 rcf for 10 minutes at approximately 5° C. To each resultant plasma sample, 50% phosphoric acid (v/v) was added to achieve a final concentration of 1% (v,v).
[^13C4]-LBQ657 was added as an internal standard to the pharmacokinetic (PK) samples and calibration standards prior to analysis by LC-MS/MS. The LC-MS system consisted of an API6500+ mass spectrometer coupled to an Agilent 1290 HPLC system equipped with a CTC Pal autosampler. The mass spectrometer was operated in the positive ion mode with a TESI ion source.

Data set [2] is described as follows: Hygroscopicity, weight gain at 90% RH. Format: physicochemical. The following applies: after exposure to 90% RH. From the text: The weight gain of compound I-1 after exposure to 90% RH (relatively humidity) was 0.34%, while that of AHU377 under the same conditions was 3.4%. […] On the other hand, AHU377 is a wax-like solid, which needs to be properly processed before further pharmaceutical processing such as weighing, dispensing and filling.

The format of data set [3] is physicochemical. Particulars: for degradation in solution: 1 day. The method, then:
It was stable at pH of 4.7 and pH of 6.8 up to 70° C. for 3 days.

Details of data set [4]: species or system Cynomolgus Monkeys. Particulars: cynomolgus monkey, in vivo, po, 10 mg/kg. The method, then:
A cross-over study design consisting of two groups with two animals per group was conducted to examine the pharmacokinetic properties of compound I-1 of the present disclosure.
Compound I-1 and AHU377 were administered to each group as follows: compound I-1 on Day 0 followed by AHU377 on Day 2 (Group 1), AHU377 on Day 0 followed by compound I-1 on Day 2 (Group 2). Each animal received a single 10 mg/kg (5 ml/kg) oral gavage dose of the specified study drug on the specified day. The animals were 2.5 to 3.5 years of age and weighed between 3.1 and 4.3 kg at the beginning of the study. Both compounds were formulated in 0.5% methylcellulose (400 cp) and 0.1% Tween 80 (w,v) in water. Blood samples for pharmacokinetics analysis were collected at t=0, 0.25, 0.5, 1, 2, 4, 8, 24 and 48 hours post dose on Day 0 and Day 2. Plasma was prepared by collecting whole blood samples into tubes containing K2EDTA and NaF (final concentrations: ˜1 mg/mL (K2EDTA) and ˜2 mg/mL (NaF)). These tubes were kept in an ice bath prior to centrifugation at approximately 2,000 rcf for 10 minutes at approximately 5° C. To each resultant plasma sample (target volume 200 μL), 4 μL of 50% phosphoric acid (v/v) was added.
[^13C4]-LBQ657 was added as an internal standard to the pharmacokinetic (PK) samples and calibration standards prior to analysis by LC-MS/MS. The LC-MS system consisted of an API6500+ mass spectrometer coupled to an Agilent 1290 HPLC system equipped with a CTC Pal autosampler. The mass spectrometer was operated in the positive ion mode.

Data set [5] can be described thus: Aqueous solubility by visual observation. Format: physicochemical. The following applies: water; based on visual observation. The method, then: The solubility value was more than about 500 mg/ml based on visual observation.

Consider `CCOC(=O)[C@H](C)C[C@@H](Cc1ccc(-c2ccccc2)cc1)NC(=O)CCC(=O)O` [AHU377, 4-(((2S,4R)-1-([1,1′-biphenyl]-4-yl)-5-ethoxy-4-methyl-5-oxopentan-2-yl)amino)-4-oxobutanoic acid], for which the tolerability result in data set [1] is “very well tolerated”; in data set [4] it was “well tolerated”. In data set [2], the “weight gain (hygroscopicity)” value was determined as 3.4%. Besides, the results for the degradation in solution in data set [3] (pH 2) and in data set [3] (pH 4.7) were 21.49% and 2.63%, respectively. Also, the “solution stability under acidic conditions” value in data set [3] (pH 2) was “unstable”.
In turn, `CCOC(=O)[C@H](C)C[C@@H](Cc1ccc(-c2ccccc2)cc1)NC(=O)CCC(=O)N[C@@H](CCCCN)C(=O)O` [Compound I-2, (4-(((2S,4R)-1-([1,1′-biphenyl]-4-yl)-5-ethoxy-4-methyl-5-oxopentan-2-yl)amino)-4-oxobutanoyl)-L-lysine] displayed a solubility in data set [5] greater than 500 mg/mL. In data set [1], the LBQ657 concentration-time profile result is “flattened relative to AHU377”, the “conversion to LBQ657” value is recorded as “nearly complete conversion to LBQ657” and the tolerability entry was “very well tolerated”.
As for `CCOC(=O)[C@H](C)C[C@@H](Cc1ccc(-c2ccccc2)cc1)NC(=O)CCC(=O)N[C@@H](CCCCN)C(=O)OC(C)(C)C` [Compound I-3, Tert-butyl (4-(((2S,4R)-1-([1,1′-biphenyl]-4-yl)-5-ethoxy-4-methyl-5-oxopentan-2-yl)amino)-4-oxobutanoyl)-L-lysinate], in data set [1], the LBQ657 concentration-time profile entry is given as “flattened relative to AHU377”, the “conversion to LBQ657” value is “nearly complete conversion to LBQ657” and the tolerability result is reported as “very well tolerated”.

In general, solubility refers to how much of the substance goes into solution per volume.
